Patent publication US6630594B2, “Methods of making substituted phenylketoenols” (Bayer Aktiengesellschaft, priority 1996, dated 2003)

Columns and labels:
Assay type in all cases: in vivo
[1] = tested on: greenhouse red spider mite Tetranychus urticae; assay: Tetranychus Test (OP-resistent/dip Treatment); details: concentration of active compound 0.1%, after 13 days, infested bean plants dipped, all stages
Description: Tetranychus Test (OP-resistent/dip Treatment)
(§1) To produce a suitable preparation of active compound, 1 part by weight of active compound is mixed with the stated amount of solvent and the stated amount of emulsifier, and the concentrate is diluted with water to the desired concentration.
Bean plants (Phaseolus vulgaris) which are heavily infested by all stages of the greenhouse red spider mite Tetranychus urticae are dipped into a perparation of active compound of the desired concentration.
After the desired period of time, the kill in % is determined. 100% means that all spider mites haven been killed: 0% means that none of the spider mites have been killed.

[2] = tested on: larvae of the mustard beetle (Phaedon cochleariae); assay: Phaedon larvae Test (cabbage leaf dip); details: concentration of active compound 0.1%, after 7 days, cabbage leaves dipped
Description: Phaedon larvae Test [table] To produce a suitable preparation of active compound, 1 part by weight of active compound is mixed with the stated amount of solvent and the stated amount of emulsifier, and the concentrate is diluted with water to the desired concentration. Cabbage leaves (Brassica oleracea) are treated by being dipped into the preparation of active compound of the desired concentration and are populated with larvae of the mustard beetle (Phaedon cochleariae) while the leaves are still moist.

[3] = tested on: green rice leaf hoppers (Nephotettix cincticeps); assay: Nephotettix-Test (rice seedling dip); details: concentration of active compound 0.1%, after 6 days, rice seedlings dipped
Description: as §1
Rice seedlings (Oryzae sativa) are treated by being dipped into the preparation of active compound of the desired concentration and are populated with the green rice leaf hoppers (Nephotettix cincticeps) while the seedlings are still moist.
After the desired period of time, the kill in % is determined. 100% means that all leaf hoppers have been killed; 0% means that none of the leaf hoppers have been killed.

[4] = tested on: caterpillars of the owlet moth Spodoptera frugiperda; assay: Spodoptera frugiperda Test (cabbage leaf dip); details: concentration of active compound 0.1%, after 7 days, cabbage leaves dipped
Description: Spodoptera frugiperda Test
as §1
Cabbage leaves (Brassica oleracea) are treated by being dipped into the preparation of active compound of the desired concentration and are populated with caterpillars of the owlet moth Spodoptera frugiperda) while the leaves are still moist.
After the desired period of time, the kill in % is determined. 100% means that all caterpillars have been killed; 0% means that none of the caterpillars haven been killed.

[5] = tested on: peach aphids (Myzus persicae); assay: Myzus-Test (cabbage leaf dip); details: concentration of active compound 0.1%, after 6 days, infested cabbage leaves dipped
Description: To produce a suitable preparation of active compound, 1 part by weight of active compound is mixed with the state amount of solvent and the stated amount of emulsifier, and the concentrate is diluted with water to the desired concentration.
Cabbage leaves (Brassica oleracea) which are heavily infested by peach aphids (Myzus persicae) are treated by being dipped into the preparation of active compound of the desired concentration.
After the desired period of time, the kill in % is determined. 100% means that all aphids have been killed; 0% means that none of the aphids have been killed.

Measured: kill in %

Cc1cc(C)c(C2=C(O)C3(CCCOC3)NC2=O)c(C)c1 (stereo not drawn) [Example I-1-a-1]
100%: [1] | [2] | [3]

Cc1cc(C)c(C2=C(OC(=O)C(C)(C)C)C3(CCCOC3)NC2=O)c(C)c1 (stereo not drawn) [Example I-1-b-1]
100%: [1] | [2] | [3]

CCOC(=O)OC1=C(c2c(C)cc(C)cc2C)C(=O)NC12CCCOC2 (stereo not drawn) [Example I-1-c-1]
100%: [1] | [4] | [5]
